DBAASP
Values after ≈ are worked out from the molar mass of the structure shown.

Legend:
Experiment in all cases: ≥ marks a high value that may be exact or a test limit, other limits are often not marked, values filed in µg/mL are converted to µM
[1] = test system: Klebsiella pneumoniae ATCC 13883
[2] = test system: Staphylococcus aureus USA 300
[3] = test system: Pseudomonas aeruginosa PAO1
[4] = test system: Escherichia coli ATCC 25922
[5] = test system: Staphylococcus aureus ATCC 33591
[6] = test system: Escherichia coli
[7] = test system: Staphylococcus aureus
[8] = test system: Candida albicans
[9] = test system: Staphylococcus aureus ATCC 25923
[10] = test system: Pseudomonas aeruginosa ATCC 27853
[11] = test system: Staphylococcus aureus ATCC 29213
[12] = test system: Enterococcus faecalis ATCC 29212
[13] = test system: Acinetobacter baumannii
[14] = test system: Candida albicans ATCC 10231
[15] = test system: Bacillus subtilis ATCC 6633
[16] = test system: Acinetobacter baumannii ATCC 19606

Q: With `CC(C)C[C@H](NC(=O)[C@H](CC(C)C)NC(=O)[C@H](CCCCN)NC(=O)CNC(=O)[C@H](CC(C)C)NC(=O)[C@H](CO)NC(=O)[C@H](CC(C)C)NC(=O)[C@H](CO)NC(=O)[C@H](CC(C)C)NC(=O)[C@H](CC(C)C)NC(=O)CN)C(N)=O` [GLLSLSLGKLL] as the molecule, how does the MIC [1] read?
A: 25 µM (≈ 27.8 µg/mL)

Q: And the MIC [2]?
A: 25 µM (≈ 27.8 µg/mL)

Q: What about the MIC [3] of the same molecule?
A: > 25 µM

Q: And the MIC [4]?
A: > 25 µM

Q: What does the source list for `CC(C)C[C@H](NC(=O)[C@H](C)NC(=O)[C@H](CCCCN)NC(=O)CNC(=O)[C@H](CC(C)C)NC(=O)[C@H](C)NC(=O)[C@H](CCCCN)NC(=O)[C@H](CC(C)C)NC(=O)[C@H](C)NC(=O)[C@H](CO)NC(=O)[C@H](CC(C)C)NC(=O)[C@H](C)NC(=O)CN)C(N)=O` [GALSALKALGKAL]?
A: MIC [1]: 25 µM (≈ 30.3 µg/mL); MIC [2]: 25 µM (≈ 30.3 µg/mL); MIC [3]: > 25 µM; MIC [4]: > 25 µM

Q: How did the MIC [5] turn out when `CC[C@H](C)[C@H](NC(=O)[C@H](CCC(N)=O)NC(=O)[C@H](CC(C)C)NC(=O)[C@H](CCC(N)=O)NC(=O)[C@@H](NC(=O)[C@H](CCCCN)NC(=O)[C@H](Cc1ccccc1)NC(=O)[C@H](Cc1c[nH]c2ccccc12)NC(=O)[C@@H](N)CCCCN)[C@@H](C)CC)C(=O)N[C@@H](CCCCN)C(=O)N[C@@H](CCCCN)C(=O)N[C@@H](Cc1c[nH]c2ccccc12)C(=O)N[C@@H](CCCCN)C(=O)N[C@@H](CC(N)=O)C(=O)N[C@@H](CCCCN)C(=O)N[C@@H](CCCCN)C(N)=O` [KWFKIQLQIKKWKNKK] was run?
A: ≥ 32 µM

Q: And the MIC [4]?
A: 32 µM (≈ 68.6 µg/mL)

Q: For `CC[C@H](C)[C@H](NC(=O)[C@H](Cc1cnc[nH]1)NC(=O)[C@H](CCCCN)NC(=O)[C@@H](NC(=O)[C@@H](NC(=O)[C@H](CC(=O)O)NC(=O)[C@H](CC(C)C)NC(=O)[C@H](Cc1ccccc1)NC(=O)CN)C(C)C)C(C)C)C(=O)NCC(=O)N[C@@H](CCCCN)C(=O)N[C@@H](C)C(=O)N[C@@H](C)C(=O)N[C@@H](CC(C)C)C(=O)NCC(=O)N[C@@H](C)C(=O)N[C@H](C(=O)N[C@H](C(=O)N[C@@H](Cc1cnc[nH]1)C(=O)N[C@@H](CC(C)C)C(=O)N[C@H](C(=O)N[C@@H](CC(N)=O)C(=O)N[C@@H](CCC(N)=O)C(N)=O)[C@@H](C)CC)[C@@H](C)O)C(C)C` [GFLDVVKHIGKAALGAVTHLINQ], which MIC [6] is on record?
A: 13.3 µM (≈ 32 µg/mL)

Q: What about the MIC [7] of the same molecule?
A: 13.3 µM (≈ 32 µg/mL)

Q: And the MIC [8]?
A: 13.3 µM (≈ 32 µg/mL)

Q: What does the source list for `C[C@H](NC(=O)[C@H](CCCCN)NC(=O)[C@H](Cc1ccc(O)cc1)NC(=O)[C@H](CCCCN)NC(=O)[C@H](CCCCN)NC(=O)[C@H](CCCCN)NC(=O)[C@H](Cc1ccc(O)cc1)NC(=O)[C@H](CCCN=C(N)N)NC(=O)[C@H](CCCCN)NC(=O)[C@@H](N)CCCCN)C(=O)N[C@@H](Cc1ccc(O)cc1)C(=O)N[C@@H](CCCCN)C(=O)N1CCC[C@H]1C(=O)N[C@@H](Cc1ccc(O)cc1)C(=O)N[C@@H](CCCCN)C(=O)N[C@@H](CCCCN)C(=O)N[C@@H](CCCCN)C(=O)N[C@@H](CCCCN)C(=O)N[C@@H](CCCCN)C(=O)N[C@@H](Cc1ccccc1)C(N)=O` [KKRYKKKYKAYKPYKKKKKF]?
A: MIC [5]: ≥ 50 µM; MIC [9]: 35.4 µM (≈ 94.7 µg/mL); MIC [10]: 100 µM (≈ 268 µg/mL); MIC [4]: 12.5 µM (≈ 33.5 µg/mL)

Q: Which MIC [1] does the source give for `CC(C)C[C@H](NC(=O)[C@H](CC(C)C)NC(=O)[C@H](CCCCN)NC(=O)CNC(=O)[C@H](CC(C)C)NC(=O)[C@H](CC(C)C)NC(=O)[C@H](CO)NC(=O)[C@H](C)NC(=O)[C@H](CC(C)C)NC(=O)[C@H](CO)NC(=O)[C@H](CC(C)C)NC(=O)[C@H](CC(C)C)NC(=O)CN)C(N)=O` [GLLSLASLLGKLL] here?
A: 3.1 µM (≈ 4.02 µg/mL)

Q: And the MIC [2]?
A: 0.78 µM (≈ 1.01 µg/mL)

Q: And the MIC [3]?
A: 8.8 µM (≈ 11.4 µg/mL)

Q: And the MIC [4]?
A: 2.16 µM (≈ 2.8 µg/mL)

Q: With `CC[C@H](C)[C@H](NC(=O)[C@H](CCCCN)NC(=O)[C@H](CS)NC(=O)[C@H](C)NC(=O)[C@@H](NC(=O)[C@H](Cc1ccccc1)NC(=O)CNC(=O)[C@H](CC(C)C)NC(=O)CNC(=O)[C@@H](NC(=O)[C@H](CCCCN)NC(=O)CNC(=O)[C@H](CC(C)C)NC(=O)[C@H](CC(N)=O)NC(=O)[C@H](CCCN=C(N)N)NC(=O)[C@H](CC(C)C)NC(=O)[C@@H](NC(=O)[C@H](CO)NC(=O)[C@H](CC(C)C)NC(=O)[C@H](CCSC)NC(=O)[C@@H](N)CO)C(C)C)C(C)C)C(C)C)C(=O)N[C@@H](CC(N)=O)C(=O)N[C@@H](CCCCN)C(=O)N[C@@H](CCC(N)=O)C(=O)N[C@@H](CS)C(=O)O` [SMLSVLRNLGKVGLGFVACKINKQC] as the molecule, how does the MIC [6] read?
A: 20 µM (≈ 53.6 µg/mL)

Q: And the MIC [7]?
A: 100 µM (≈ 268 µg/mL)

Q: And the MIC [8]?
A: 200 µM (≈ 536 µg/mL)

Q: For `CC[C@H](C)[C@H](NC(=O)[C@H](CCCN=C(N)N)NC(=O)[C@H](CC(C)C)NC(=O)CNC(=O)[C@H](CCCCN)NC(=O)CNC(=O)[C@@H]1CCCN1C(=O)[C@H](CC(C)C)NC(=O)[C@H](CC(N)=O)NC(=O)[C@@H]1CCCN1C(=O)[C@H](CO)NC(=O)[C@H](Cc1ccccc1)NC(=O)CN)C(=O)N[C@@H](CO)C(=O)O` [GFSPNLPGKGLRIS], which MIC [7] is on record?
A: > 69.3 µM

Q: What about the MIC [8] of the same molecule?
A: 34.7 µM (≈ 50 µg/mL)

Q: What does the source list for `CC(C)C[C@H](NC(=O)[C@H](CC(C)C)NC(=O)[C@H](CCCCN)NC(=O)CNC(=O)[C@H](CC(C)C)NC(=O)[C@H](C)NC(=O)[C@H](CCCCN)NC(=O)[C@H](CC(C)C)NC(=O)[C@H](C)NC(=O)[C@H](CO)NC(=O)[C@H](CC(C)C)NC(=O)[C@H](C)NC(=O)CN)C(N)=O` [GALSALKALGKLL]?
A: MIC [1]: 25 µM (≈ 31.3 µg/mL); MIC [2]: 25 µM (≈ 31.3 µg/mL); MIC [3]: > 25 µM; MIC [4]: 25 µM (≈ 31.3 µg/mL)

Q: Which MIC [11] does the source give for `CC(C)C[C@H](NC(=O)[C@H](CC(C)C)NC(=O)[C@H](CCCNC(=N)N)NC(=O)[C@H](CCCCN)NC(=O)[C@H](CCCNC(=N)N)NC(=O)[C@H](CC(C)C)NC(=O)[C@H](CCCCN)NC(=O)[C@H](CCCNC(=N)N)NC(=O)[C@H](CC(C)C)NC(=O)[C@H](CC(C)C)NC(=O)[C@H](CC(C)C)NC(=O)[C@H](CCCNC(=N)N)NC(=O)[C@H](CCCCN)NC(=O)[C@H](CCCNC(=N)N)NC(=O)[C@H](CC(C)C)NC(=O)[C@H](CCCCN)NC(=O)[C@H](CCCNC(=N)N)NC(=O)[C@@H](N)CC(C)C)C(=O)O` [LRKLRKRLLLRKLRKRLL] here?
A: > 13.5 µM

Q: And the MIC [12]?
A: > 13.5 µM

Q: And the MIC [10]?
A: 6.74 µM (≈ 16 µg/mL)

Q: And the MIC [13]?
A: 13.5 µM (≈ 32 µg/mL)

Q: And the MIC [4]?
A: 5.06 µM (≈ 12 µg/mL)

Q: Which results are given for `C[C@H](N)C(=O)N[C@@H](CCCN=C(N)N)C(=O)N[C@@H](Cc1c[nH]c2ccccc12)C(=O)N[C@@H](CCCN=C(N)N)C(=O)N[C@@H](Cc1ccccc1)C(=O)N[C@@H](CCCCN)C(=O)N[C@@H](Cc1c[nH]c2ccccc12)C(=O)N[C@@H](C)C(=O)N[C@@H](CCCCN)C(=O)N[C@@H](CCCCN)C(=O)O` [ARWRFKWAKK]?
A: MIC [9]: 54.5 µM (≈ 75 µg/mL); MIC [14]: 54.5 µM (≈ 75 µg/mL); MIC [15]: ≥ 54.5 µM; MIC [4]: 54.5 µM (≈ 75 µg/mL)

Q: Which results are given for `CC[C@H](C)[C@H](NC(=O)[C@H](CCCN=C(N)N)NC(=O)[C@@H](NC(=O)[C@@H](NC(=O)[C@@H]1CCCN1C(=O)[C@@H](NC(=O)[C@@H](NC(=O)[C@@H](NC(=O)[C@@H]1CCCN1C(=O)CNC(=O)[C@H](Cc1ccc(O)cc1)NC(=O)[C@H](CCCCN)NC(=O)[C@H](CCCCN)NC(=O)[C@H](Cc1c[nH]c2ccccc12)NC(=O)[C@H](C)NC(=O)[C@H](CCCN=C(N)N)NC(=O)[C@H](CC(C)C)NC(=O)[C@@H](NC(=O)[C@H](CCCCN)NC(=O)[C@H](CCCN=C(N)N)NC(=O)CNC(=O)[C@H](CC(C)C)NC(=O)[C@H](CCCCN)NC(=O)[C@H](CCCN=C(N)N)NC(=O)[C@H](CC(C)C)NC(=O)CNC(=O)[C@@H](N)CCCCN)[C@@H](C)CC)[C@@H](C)CC)[C@@H](C)CC)C(C)C)[C@@H](C)CC)[C@@H](C)CC)C(=O)O` [KGLRKLGRKILRAWKKYGPIIVPIIRI]?
A: MIC [13]: 3.14 µM (≈ 10 µg/mL); MIC [16]: 2.22 µM (≈ 7.07 µg/mL)

Q: For `CC[C@H](C)[C@H](NC(=O)[C@H](CCCCN)NC(=O)[C@@H](NC(=O)[C@H](CCC(N)=O)NC(=O)[C@@H](N)CCCN=C(N)N)[C@@H](C)CC)C(=O)N[C@@H](Cc1c[nH]c2ccccc12)C(=O)N[C@@H](Cc1ccccc1)C(=O)N[C@@H](CCC(N)=O)C(=O)N[C@@H](CC(N)=O)C(=O)N[C@@H](CCCN=C(N)N)C(=O)N[C@@H](CCCN=C(N)N)C(=O)N[C@@H](CC(C)C)C(=O)N[C@@H](CCCCN)C(=O)N[C@@H](Cc1c[nH]c2ccccc12)C(=O)N[C@@H](CCCCN)C(=O)N[C@@H](CCCCN)C(N)=O` [RQIKIWFQNRRLKWKK], which MIC [5] is on record?
A: ≥ 64 µM

Q: And the MIC [4]?
A: 32 µM (≈ 71.3 µg/mL)

Q: For `CC(C)C[C@H](NC(=O)[C@H](CC(C)C)NC(=O)[C@H](CCCCN)NC(=O)[C@H](CCCCN)NC(=O)[C@H](CC(C)C)NC(=O)[C@H](CS)NC(=O)[C@H](CCCCN)NC(=O)[C@H](CC(C)C)NC(=O)[C@@H](N)Cc1ccccc1)C(N)=O` [FLKCLKKLL], which MIC [9] is on record?
A: 57.9 µM (≈ 63.9 µg/mL)

Q: And the MIC [10]?
A: 14.5 µM (≈ 16 µg/mL)

Q: What about the MIC [4] of the same molecule?
A: 14.5 µM (≈ 16 µg/mL)

Q: What about the MIC [16] of the same molecule?
A: 14.5 µM (≈ 16 µg/mL)
